pEC50, pIC50: −log10 of the molar value.
Experiments:
[1] = molecular target: T1, Recombinant ROCK1 (amino acids 1-477) (Homo sapiens, UniProt Q13464); assay: ROCK inhibition assay, LANCE Ultra TR-FRET kinase assay (ROCK1); type: biochemical; conditions: 1 μM ATP, 50 nM ULight-CREBtide substrate
T1 construct: Recombinant ROCK1 (amino acids 1-477); by word order, ROCK1 from Carna Biosciences
Summary of the method: (§1)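 LANCE Ultra TR-FRET kinase assay with recombinant ROCK1 (aa 1-477) or ROCK2 (aa 5-554), 50 nM ULight-CREBtide and ATP at 1 μM (ROCK1) or 4 μM (ROCK2) in HEPES pH 7.5 with MgCl2, 1 h at room temperature. EDTA stop with Eu anti-phospho-CREB Ser133 antibody; 665/615 nm read gives IC50.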

[2] = molecular target: T2, Recombinant ROCK2 (amino acids 5-554) (Homo sapiens, UniProt O75116); assay: ROCK inhibition assay, LANCE Ultra TR-FRET kinase assay (ROCK2); type: biochemical; conditions: 4 μM ATP, 50 nM ULight-CREBtide substrate
T2 construct: ROCK2 (amino acids 5-554); by word order, ROCK2 from SignalChem
Summary of the method: as §1

[3] = system: ROCK1/2 in A7r5 cells (pMLC2 levels); assay: Inhibition of ROCK1/2 in A7r5 cells, cell-based ELISA of phospho-myosin light chain (pMLC2, Thr18/Ser19); conditions: Rattus norvegicus, 1.5 h, treated with test compounds for 90 minutes, read-out: pMLC2 (cellular EC50)
Protocol: Inhibition of ROCK1/2 in A7r5 cells was measured through cell-based ELISA assay. Rat aortic smooth muscle cell line A7r5 cells were maintained and treated in DMEM medium with 10% fetal bovine serum. Cells were seeded with 5,000 cells/well in 96 well plates for 24 hours and subsequently treated with test compounds for 90 minutes. Cells were then fixed and processed according to the In-Cell ELISA Colrimetric Detection Kit manual (Thermo Scientific). Cellular phospho-myosin light chain (pMLC2, Thr18/Ser19) levels were determined after treatment with DMSO control or a test compound using the In-Cell ELISA kit.
The resulting data was applied to the following formula ‘[1-(compound/DMSO)]×100%’ to calculate the percent inhibition rate. pMLC2 data obtained from 9 points 3-fold serial dilution of compounds were applied to the nonlinear regression curve fit function of the GraphPad Prism software to calculate the cellular EC50 values.

T1 sequence (Q13464 1-477): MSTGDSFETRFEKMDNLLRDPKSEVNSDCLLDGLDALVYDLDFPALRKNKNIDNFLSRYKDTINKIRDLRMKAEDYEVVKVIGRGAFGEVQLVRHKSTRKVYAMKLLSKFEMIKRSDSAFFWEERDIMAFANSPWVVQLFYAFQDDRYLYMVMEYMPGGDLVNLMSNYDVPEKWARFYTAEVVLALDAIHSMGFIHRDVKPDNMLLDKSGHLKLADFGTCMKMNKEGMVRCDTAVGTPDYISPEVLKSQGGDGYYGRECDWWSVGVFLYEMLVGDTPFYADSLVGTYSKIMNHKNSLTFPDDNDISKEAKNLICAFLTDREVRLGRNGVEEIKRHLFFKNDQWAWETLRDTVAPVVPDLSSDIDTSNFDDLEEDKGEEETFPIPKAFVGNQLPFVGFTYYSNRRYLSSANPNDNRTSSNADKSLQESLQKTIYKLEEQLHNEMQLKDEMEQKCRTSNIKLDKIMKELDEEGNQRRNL
T2 sequence (O75116 5-554): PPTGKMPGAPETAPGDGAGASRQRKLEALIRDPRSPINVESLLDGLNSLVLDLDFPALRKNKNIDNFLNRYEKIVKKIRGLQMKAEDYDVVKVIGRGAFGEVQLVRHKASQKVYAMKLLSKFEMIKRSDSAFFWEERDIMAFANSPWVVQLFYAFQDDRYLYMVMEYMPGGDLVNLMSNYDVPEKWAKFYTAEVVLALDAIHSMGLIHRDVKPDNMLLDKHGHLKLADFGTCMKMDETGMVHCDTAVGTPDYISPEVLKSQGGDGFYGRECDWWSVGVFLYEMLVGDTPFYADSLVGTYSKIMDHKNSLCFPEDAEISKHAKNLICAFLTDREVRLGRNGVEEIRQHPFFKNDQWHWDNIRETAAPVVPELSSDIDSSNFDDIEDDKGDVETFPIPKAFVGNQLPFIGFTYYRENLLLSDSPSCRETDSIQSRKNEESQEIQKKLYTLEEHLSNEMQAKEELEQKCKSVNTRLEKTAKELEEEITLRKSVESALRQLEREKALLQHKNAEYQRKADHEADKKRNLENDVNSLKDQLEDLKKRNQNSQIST

| SMILES | pIC50 [1] | pIC50 [2] | pEC50 [3] |
| --- | --- | --- | --- |
| COc1cccc(Cn2ccc3cc(-c4ccnc(N)c4)ccc3c2=O)c1 [Compound 24] | < 6.30 | 7.00 to 8.00 | 6.30 to 7.00 |
| Cn1nccc1-c1ccc2c(=O)n(Cc3cccc(C(=O)NC4CCN(CC(F)(F)F)CC4)c3)ccc2c1 [Compound 108] | 7.00 to 7.96 | > 8.00 | 6.30 to 7.00 |
| Nc1cc(-c2ccc3c(=O)n(Cc4cccc(C(=O)NCCc5ccccn5)c4)ccc3c2)ccn1 [Compound 186] | 7.00 to 7.96 | > 8.00 | > 7.00 |
| Cc1nocc1-c1ccc2c(=O)n(Cc3cccc(C(=O)NC4CCN(CC(F)F)CC4)c3)ccc2c1 [Compound 86] | 7.00 to 7.96 | > 8.00 | > 7.00 |
| Cc1nocc1-c1ccc2c(=O)n(Cc3cccc(C(=O)N[C@H]4CC[C@H](O)CC4)c3)ccc2c1 [Compound 75] | 6.30 to 7.00 | 7.00 to 8.00 | 6.30 to 7.00 |
| Cc1nocc1-c1ccc2c(=O)n(Cc3cccc(C(=O)NC4COC4)c3)ccc2c1 [Compound 146] | 6.30 to 7.00 | 7.00 to 8.00 | 6.00 to 6.30 |
| Cc1nocc1-c1ccc2c(=O)n(Cc3cccc(C(=O)NCC4CCN(CC(F)F)CC4)c3)ccc2c1 [Compound 82] | 6.30 to 7.00 | 7.00 to 8.00 | > 7.00 |
| CNC(=O)c1cccc(Cn2ccc3cc(-c4cn[nH]c4C(F)(F)F)ncc3c2=O)c1 [Compound 233] | 7.00 to 7.96 | > 8.00 | 6.30 to 7.00 |
| Cn1nccc1-c1ccc2c(=O)n(Cc3cc(F)cc(C(=O)N[C@H]4CC[C@@H](O)CC4)c3)ccc2c1 [Compound 165] | 6.30 to 7.00 | 7.00 to 8.00 | 6.00 to 6.30 |
| Cn1nccc1-c1ccc2c(=O)n(Cc3cccc(O)c3)ccc2c1 [Compound 12] | 7.00 to 7.96 | > 8.00 | 6.30 to 7.00 |
| Cc1nocc1-c1ccc2c(=O)n(Cc3cccc(C(=O)NC4CCOCC4)c3)ccc2c1 [Compound 77] | 7.00 to 7.96 | > 8.00 | 6.30 to 7.00 |
| Cn1ccc(NC(=O)c2cccc(Cn3ccc4cc(-c5ccnc(N)c5)ccc4c3=O)c2)n1 [Compound 200] | 7.00 to 7.96 | > 8.00 | > 7.00 |
| Nc1cc(-c2ccc3c(=O)n(Cc4cccc(C(=O)NCc5ccccc5CO)c4)ccc3c2)ccn1 [Compound 184] | 6.30 to 7.00 | 7.00 to 8.00 | > 7.00 |
| CN(C)Cc1ccccc1Cn1ccc2cc(-c3ccnc(N)c3)ccc2c1=O [Compound 25] | 7.00 to 7.96 | > 8.00 | 6.30 to 7.00 |
| Nc1cc(-c2ccc3c(=O)n(Cc4cccc(C(=O)Nc5ccc6c(c5)CCNC6)c4)ccc3c2)ccn1 [Compound 188] | 7.00 to 7.96 | > 8.00 | > 7.00 |
| Cn1nccc1-c1ccc2c(=O)n(Cc3cccc(C(=O)NC4CCN(CC(F)F)CC4)c3)ccc2c1 [Compound 107] | 7.00 to 7.96 | > 8.00 | 6.30 to 7.00 |
| COc1cccc(Cn2ccc3cc(-c4ccncc4)ccc3c2=O)c1 [Compound 22] | > 8.00 | > 8.00 | > 7.00 |
| Cc1n[nH]cc1-c1ccc2c(=O)n(Cc3cccc(C(=O)NCCc4ccccn4)c3)ccc2c1 [Compound 31] | > 8.00 | > 8.00 | > 7.00 |
| Cc1nocc1-c1ccc2c(=O)n(Cc3cccc(O)c3)ccc2c1 [Compound 10] | 7.00 to 7.96 | > 8.00 | > 7.00 |

Second part, the molecule after the results:

| pIC50 [1] | pIC50 [2] | pEC50 [3] | SMILES |
| --- | --- | --- | --- |
| 6.30 to 7.00 | 7.00 to 8.00 | < 6.00 | CNC(=O)c1cccc(Cn2ccc3cc(-c4ccnn4C)ccc3c2=O)c1 [Compound 320] |
| 7.00 to 7.96 | > 8.00 | 6.00 to 6.30 | CNC(=O)c1cccc(Cn2ccc3cc(-c4cn[nH]c4C(F)(F)F)ccc3c2=O)c1 [Compound 280] |
| 6.30 to 7.00 | > 8.00 | 6.00 to 6.30 | CNC(=O)c1cccc(Cn2ccc3cc(-c4conc4C)ccc3c2=O)c1 [Compound 277] |
| 7.00 to 7.96 | > 8.00 | 6.30 to 7.00 | Nc1cc(-c2ccc3c(=O)n(Cc4cccc(C(=O)NCCc5ccccn5)c4)cnc3c2)ccn1 [Compound 437] |
| 7.00 to 7.96 | > 8.00 | 6.30 to 7.00 | CNC(=O)c1cc(F)cc(Cn2ccc3cc(-c4cn[nH]c4C(F)(F)F)ccc3c2=O)c1 [Compound 281] |
| 6.30 to 7.00 | 7.00 to 8.00 | 6.30 to 7.00 | CNC(=O)c1cc(F)cc(Cn2ccc3cc(-c4ccnn4C)ccc3c2=O)c1 [Compound 323] |
| 7.00 to 7.96 | > 8.00 | 6.30 to 7.00 | CNC(=O)c1cccc([C@@H](C)n2cnc3cc(-c4cn[nH]c4C(F)(F)F)ccc3c2=O)c1 [Compound 440, (R)—N-methyl-3-(1-(4-oxo-7-(5-(trifluoromethyl)-1H-pyrazol-4-yl)quinazolin-3(4H)-yl)ethyl)benzamide] |
| 7.00 to 7.96 | > 8.00 | > 7.00 | CNC(=O)c1cccc([C@@H](C)n2cnc3cc(-c4cn[nH]c4Cl)ccc3c2=O)c1 [Compound 466] |
| 7.00 to 7.96 | > 8.00 | 6.30 to 7.00 | CNC(=O)c1cccc(Cn2ccc3cc(-c4ccnc(N)c4)ccc3c2=O)c1 [Compound 326] |
| 7.00 to 7.96 | > 8.00 | 6.00 to 6.30 | CNC(=O)c1cc(F)cc(Cn2ccc3cc(-c4conc4C)ccc3c2=O)c1 [Compound 315] |
| 7.00 to 7.96 | > 8.00 | > 7.00 | CNC(=O)c1cccc([C@@H](C)n2cnc3cc(-c4conc4C)ccc3c2=O)c1 [Compound 469] |
| 6.30 to 7.00 | 6.30 to 7.00 |  | CNC(=O)c1cccc(Cn2ccc3cc(-c4cc[nH]c4C)ccc3c2=O)c1 [Compound 306] |

— patent publication US12064426B2, “Selective inhibitors of ROCK1 and ROCK2 protein kinases and uses thereof” (GENOSCO Inc., priority 2021, dated 2024)
